# Laboratory results as given in PubChem BioAssay (NCI).
#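 At the GI50, growth is halved. At the TGI there is no net growth.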
# How the values were obtained:
# Assay in all cases: NCI tumour cell line growth inhibition, 384-well format
# [1] = system: IGROV1 ovarian
# [2] = system: U251 glioblastoma
# [3] = system: MOLT-4 leukemia
# [4] = system: BT-549 breast
# [5] = system: HOP-62 NSCLC
# [6] = system: ACHN renal
# [7] = system: HCT-116 colon
# [8] = system: SF-268 CNS
# [9] = system: HOP-92 NSCLC
# [10] = system: OVCAR-3 ovarian
# [11] = system: NCI/ADR-RES ovarian
# [12] = system: A549 NSCLC
# [13] = system: SNB-75 CNS
# [14] = system: MDA-MB-231 breast
# [15] = system: OVCAR-4 ovarian
# [16] = system: HCC-2998 colon
# [17] = system: PC-3 prostate
# [18] = system: SNB-19 CNS
# [19] = system: OVCAR-5 ovarian
# [20] = system: T-47D breast
# [21] = system: SK-OV-3 ovarian
# [22] = system: EKVX NSCLC
# [23] = system: CAKI-1 renal
# [24] = system: M14 melanoma
# [25] = system: SR leukemia
# [26] = system: KM12 colon
# [27] = system: MCF7 breast
# [28] = system: MDA-MB-468 breast
# [29] = system: SK-MEL-5 melanoma
# [30] = system: MALME-3M melanoma
# [31] = system: NCI-H23 lung
# [32] = system: HCT-15 colon
# [33] = system: SW-620 colon
# [34] = system: TK-10 renal
# [35] = system: UO-31 renal
# [36] = system: DU-145 prostate
# [37] = system: SF-539 CNS
# [38] = system: CCRF-CEM leukemia
# [39] = system: COLO 205 colon
# [40] = system: RPMI-8226 leukemia
# [41] = system: NCI-H522 lung
# [42] = system: MDA-MB-435 melanoma
# [43] = system: UACC-257 melanoma
# [44] = system: HT29 colon
# [45] = system: UACC-62 melanoma
# [46] = system: SK-MEL-28 melanoma
# [47] = system: HL-60(TB) leukemia
# [48] = system: A498 renal
# [49] = system: NCI-H322M lung
# [50] = system: LOX IMVI melanoma
# [51] = system: RXF 393 renal
# [52] = system: SN12C renal
# [53] = system: NCI-H460 NSCLC
# [54] = system: OVCAR-8 ovarian
# [55] = system: 786-0 renal
# [56] = system: HS 578T breast
# [57] = system: SF-295 CNS
# [58] = system: NCI-H226 lung
# [59] = system: SK-MEL-2 melanoma
# [60] = system: K-562 leukemia
compound,measurement,setting,value
Cn1cnc2c(F)c(Nc3ccc(Br)cc3F)c(C(=O)NOCCO)cc21,GI50,[1],1.55 µM
same,TGI,[1],> 100 µM
same,GI50,[2],12.4 µM
same,TGI,[2],> 100 µM
same,GI50,[3],> 100 µM
same,TGI,[3],> 100 µM
same,GI50,[4],15.7 µM
same,TGI,[4],> 100 µM
same,TGI,[5],> 100 µM
same,GI50,[6],> 33.9 µM
same,TGI,[6],> 100 µM
same,GI50,[7],0.498 µM
same,TGI,[7],15.2 µM
same,GI50,[8],> 100 µM
same,TGI,[8],> 100 µM
same,GI50,[9],1.38 µM
same,TGI,[9],9.01 µM
same,GI50,[10],> 100 µM
same,TGI,[10],> 100 µM
same,GI50,[11],93.9 µM
same,TGI,[11],> 100 µM
same,GI50,[12],0.553 µM
same,TGI,[12],> 100 µM
same,TGI,[13],> 75.8 µM
same,GI50,[14],0.422 µM
same,TGI,[14],8.26 µM
same,GI50,[15],17.9 µM
same,TGI,[15],> 100 µM
same,GI50,[16],< 0.01 µM
same,TGI,[16],0.733 µM
same,GI50,[17],> 100 µM
same,TGI,[17],> 100 µM
same,GI50,[18],> 100 µM
same,TGI,[18],> 100 µM
same,GI50,[19],0.922 µM
same,TGI,[19],> 100 µM
same,GI50,[20],> 100 µM
same,TGI,[20],> 100 µM
same,GI50,[21],> 100 µM
same,TGI,[21],> 100 µM
same,GI50,[22],29.4 µM
same,TGI,[22],> 100 µM
same,TGI,[23],> 100 µM
same,GI50,[24],< 0.0121 µM
same,TGI,[24],0.161 µM
same,GI50,[25],24.7 µM
same,TGI,[25],> 100 µM
same,GI50,[26],0.419 µM
same,TGI,[26],> 100 µM
same,GI50,[27],> 100 µM
same,TGI,[27],> 100 µM
same,GI50,[28],> 100 µM
same,TGI,[28],> 100 µM
same,GI50,[29],0.0317 µM
same,GI50,[30],< 0.01 µM
same,TGI,[30],0.0159 µM
same,GI50,[31],0.325 µM
same,TGI,[31],17.8 µM
same,GI50,[32],> 44.7 µM
same,TGI,[32],> 100 µM
same,GI50,[33],0.0211 µM
same,TGI,[33],> 100 µM
same,GI50,[34],38.3 µM
same,TGI,[34],> 100 µM
same,GI50,[35],4.96 µM
same,TGI,[35],> 45.9 µM
same,GI50,[36],31.8 µM
same,TGI,[36],> 100 µM
same,GI50,[37],21.9 µM
same,TGI,[37],> 90.9 µM
same,GI50,[38],> 100 µM
same,TGI,[38],> 100 µM
same,GI50,[39],< 0.0149 µM
same,TGI,[39],0.322 µM
same,GI50,[40],> 56 µM
same,TGI,[40],> 100 µM
same,GI50,[41],> 45.4 µM
same,TGI,[41],> 100 µM
same,GI50,[42],0.1 µM
same,TGI,[42],> 100 µM
same,GI50,[43],0.0333 µM
same,TGI,[43],0.241 µM
same,GI50,[44],0.0524 µM
same,TGI,[44],> 100 µM
same,GI50,[45],0.0203 µM
same,TGI,[45],1.2 µM
same,GI50,[46],< 0.0143 µM
same,TGI,[46],0.162 µM
same,GI50,[47],0.0399 µM
same,TGI,[47],> 100 µM
same,GI50,[48],16.9 µM
same,TGI,[48],> 100 µM
same,GI50,[49],1.96 µM
same,TGI,[49],> 57.7 µM
same,GI50,[50],1.25 µM
same,TGI,[50],18.7 µM
same,TGI,[51],> 21 µM
same,GI50,[52],12.5 µM
same,TGI,[52],> 100 µM
same,GI50,[53],> 100 µM
same,TGI,[53],> 100 µM
same,GI50,[54],> 67.4 µM
same,TGI,[54],> 100 µM
same,GI50,[55],> 32.1 µM
same,TGI,[55],> 100 µM
same,TGI,[56],> 88.2 µM
same,GI50,[57],> 100 µM
same,TGI,[57],> 100 µM
same,GI50,[58],0.405 µM
same,TGI,[58],> 31.9 µM
Cc1cc(C)c(S(=O)(=O)N(CCc2cccc(Br)c2)Cc2ccc(-c3cccc(S(C)(=O)=O)c3)cc2)c(C)c1,GI50,[1],> 100 µM
same,TGI,[1],> 100 µM
same,GI50,[2],> 100 µM
same,TGI,[2],> 100 µM
same,GI50,[3],> 100 µM
same,TGI,[3],> 100 µM
same,GI50,[4],> 100 µM
same,TGI,[4],> 100 µM
same,GI50,[5],> 100 µM
same,TGI,[5],> 100 µM
same,GI50,[6],> 100 µM
same,TGI,[6],> 100 µM
same,GI50,[7],> 100 µM
same,TGI,[7],> 100 µM
same,GI50,[8],> 100 µM
same,TGI,[8],> 100 µM
same,GI50,[9],> 100 µM
same,TGI,[9],> 100 µM
same,GI50,[10],> 100 µM
same,TGI,[10],> 100 µM
same,GI50,[11],> 100 µM
same,TGI,[11],> 100 µM
same,GI50,[12],> 100 µM
same,TGI,[12],> 100 µM
same,GI50,[13],> 100 µM
same,TGI,[13],> 100 µM
same,GI50,[14],> 100 µM
same,TGI,[14],> 100 µM
same,GI50,[15],> 100 µM
same,TGI,[15],> 100 µM
same,GI50,[16],> 100 µM
same,TGI,[16],> 100 µM
same,GI50,[17],> 100 µM
same,TGI,[17],> 100 µM
same,GI50,[18],> 100 µM
same,TGI,[18],> 100 µM
same,GI50,[19],> 100 µM
same,TGI,[19],> 100 µM
same,GI50,[20],> 100 µM
same,TGI,[20],> 100 µM
same,GI50,[21],> 100 µM
same,TGI,[21],> 100 µM
same,GI50,[22],> 100 µM
same,TGI,[22],> 100 µM
same,GI50,[23],> 81.9 µM
same,TGI,[23],> 100 µM
same,GI50,[24],> 100 µM
same,TGI,[24],> 100 µM
same,TGI,[25],> 100 µM
same,GI50,[26],> 100 µM
same,TGI,[26],> 100 µM
same,GI50,[27],> 100 µM
same,TGI,[27],> 100 µM
same,GI50,[28],> 100 µM
same,TGI,[28],> 100 µM
same,GI50,[29],> 100 µM
same,TGI,[29],> 100 µM
same,GI50,[30],> 100 µM
same,TGI,[30],> 100 µM
same,GI50,[31],> 100 µM
same,TGI,[31],> 100 µM
same,GI50,[32],> 100 µM
same,TGI,[32],> 100 µM
same,GI50,[59],> 100 µM
same,TGI,[59],> 100 µM
same,GI50,[33],> 100 µM
same,TGI,[33],> 100 µM
same,GI50,[34],> 100 µM
same,TGI,[34],> 100 µM
same,GI50,[35],> 100 µM
same,TGI,[35],> 100 µM
same,GI50,[36],> 100 µM
same,TGI,[36],> 100 µM
same,GI50,[37],> 100 µM
same,TGI,[37],> 100 µM
same,GI50,[38],> 100 µM
same,TGI,[38],> 100 µM
same,GI50,[39],> 100 µM
same,TGI,[39],> 100 µM
same,GI50,[40],> 100 µM
same,TGI,[40],> 100 µM
same,GI50,[41],> 100 µM
same,TGI,[41],> 100 µM
same,GI50,[60],> 100 µM
same,TGI,[60],> 100 µM
same,GI50,[42],> 100 µM
same,TGI,[42],> 100 µM
same,GI50,[43],> 100 µM
same,TGI,[43],> 100 µM
same,GI50,[44],> 100 µM
same,TGI,[44],> 100 µM
same,GI50,[45],> 100 µM
same,TGI,[45],> 100 µM
same,GI50,[46],> 100 µM
same,TGI,[46],> 100 µM
same,TGI,[47],> 100 µM
same,GI50,[48],> 100 µM
same,TGI,[48],> 100 µM
same,GI50,[49],> 100 µM
same,TGI,[49],> 100 µM
same,GI50,[50],> 100 µM
same,TGI,[50],> 100 µM
same,GI50,[51],> 100 µM
same,TGI,[51],> 100 µM
same,GI50,[52],> 100 µM
same,TGI,[52],> 100 µM
same,GI50,[53],> 100 µM
same,TGI,[53],> 100 µM
same,GI50,[54],> 100 µM
same,TGI,[54],> 100 µM
same,GI50,[55],> 100 µM
same,TGI,[55],> 100 µM
same,GI50,[57],0.0672 µM
same,GI50,[58],> 100 µM
same,TGI,[58],> 100 µM
